Values of other authors, collected in PMC12239574 (mBio, 2025).

System: SARS-CoV-2 with M^pro E166V

Row | SMILES | fold increase in the antiviral EC50 relative to the wild-type virus [fold]
1 | CC(C)(C)[C@H](NC(=O)C(F)(F)F)C(=O)N1C[C@H]2[C@@H]([C@H]1C(=O)N[C@H](C#N)C[C@@H]1CCNC1=O)C2(C)C [nirmatrelvir] | 100
2 | Cn1cnc(Cn2c(=O)[nH]/c(=N\c3cc4cn(C)nc4cc3Cl)n(Cc3cc(F)c(F)cc3F)c2=O)n1 [ensitrelvir] | 23
